In patent US11427586B2, “1,2,4-oxadiazole derivatives as liver X receptor agonists” (NOVARTIS AG, priority 2019, dated 2022) one finds Emax and EC50 data, which are given here for eleven compounds.

Like-named read-outs stand apart in the source and are kept apart here.

The test system of one test is SZ95 sebocytes. Nature of the test: Sentinel Lipid Assay (SLA), desaturation index in SZ95 sebocytes. The test is classed as cell-based. The settings on record: Homo sapiens, 72 h; for EC50: desaturation index, lowest dose used 4.6 nM, read-out: SLA EC50. An outline of the steps:
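SZ95 human sebocytes on fibronectin-coated plates, dosed 72 h at 37 °C with 1:3 dilutions from 10 μM; lipids extracted with deuterated triglyceride internal standards and quantified by LC-MS/MS (MRM) as 11 sentinel lipids. Desaturation index from elastic-net coefficients, normalized to DMSO; Amax relative to a reference LXR agonist.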

The next test has as its system SCD1. Kind of test: Measurement of SCD1 expression in SZ95-SCD1-HiBit cells (HiBiT assay). The settings on record: Homo sapiens, 48 h; for EC50: SCD1 protein production, luminescence, initial dilution 1:3 in DMSO, read-out: HiBit EC50. The test is classed as cell-based. The source says: Measurement of SCD1 Expression in SZ95-SCD1-HiBit Cells
SCD1 expression levels in SZ95 cells were quantitated using the HiBiT system (Promega) in which a small peptide sequence (SmBiT) with a larger protein (LgBiT) reconstitutes luciferase activity and can generate a luminescent signal used for quantitation. SZ95-SCD1-HiBit cells were generated by editing the SCD1 gene of SZ95 cells resulting in the addition of an 8 amino acid linker sequence (gssggssg, SEQ ID NO:1) followed by an 11-amino acid SmBiT sequence (vsgwrlfkkis, SEQ ID NO:2) at the carboxy-terminus of the SCD1 protein. The gRNA targeting sequence used was […] (SEQ ID NO: 3) and the SCD1 insertion oligonucleotide encoding the SmBiT sequence was:
SZ95-SCD1-HiBit cells were seeded in 384-well cell culture white plates at a density of 3000 cells/30 μl. Water was added to edge wells to avoid evaporation. Cells were incubated in a humidified incubator with 5% CO2 at 37° C. overnight. Tested compounds were diluted at a ratio of 1:3 in DMSO using an Agilent BRAVO Automated Liquid Handling Platform and, after further serial dilutions, added to cells at final concentrations starting from 18 μM. 2-(3-(3-((2-chloro-3-(trifluoromethyl)benzyl)(2,2-diphenylethyl)amino)propoxy)phenyl)acetic acid was used as a reference compound in each plate. Cells in the assay plate were incubated in a humidified incubator with 5% CO2 at 37° C. for 48 h.
The assay plates were removed from the incubator and allowed to equilibrate to room temperature. Nano-Glo® HiBiT Detection Reagent (Promega; a mixture of Nano-Glo HiBiT Detection Buffer, Nano-Glo HiBiT Detection Substrate, and LgBiT protein, according to the manufacturer's instructions) was added into assay plates, at a volume equal to cell culture medium in each well. Plates were placed on an orbital shaker at a speed of 300-600 rpm for 10 min at room temperature, and read on an EnVision Plate Reader using luminescence detection with a 1 second read time.
The assay measures the increase in SCD1 protein production in vitro. Amax refers to the percent EC50 of the tested compound compared to a reference compound, 2-(3-(3-((2-chloro-3-(trifluoromethyl)benzyl)(2,2-diphenylethyl)amino)propoxy)phenyl)acetic acid.

[1] abbreviates: normalized Amax based on the reference compound Amax of 100%, read-out: SLA Normalized Amax.
Setting [2] is: SZ95 cells, compared to reference compound, read-out: SLA Amax.
Where [3] appears, read: normalized Amax based on the reference compound Amax of 100%, read-out: HiBit Normalized Amax.
The mark [4] stands for this setting: SZ95-SCD1-HiBit cells, compared to reference compound, read-out: HiBit Amax.

Regarding `O=C1N(Cc2nc(-c3ccc(Oc4ccccc4S(=O)(=O)CC4CCCO4)c(C(F)(F)F)c3)no2)C(=O)C2(CCN(C3CCC3)CC2)N1CCC1CCOCC1` (stereo not drawn) [Compound 19, 8-cyclobutyl-1-(2-(tetrahydro-2H-pyran-4-yl)ethyl)-3-((3-(4-(2-(((tetrahydrofuran-2-yl)methyl)sulfonyl)phenoxy)-3-(trifluoromethyl)phenyl)-1,2,4-oxadiazol-5-yl)methyl)-1,3,8-triazaspiro[4.5]decane-2,4-dione], the Emax is 146% in the test on SZ95 sebocytes (setting [1]), 140% in the test on SZ95 sebocytes (setting [2]), 194% in the test on SCD1 (setting [3]) and 184% in the test on SCD1 (setting [4]). For the same compound, the EC50 is at most 4.6 nM in the test with SZ95 sebocytes (SZ95 cells) and 0.042 nM in the test with SCD1 (SZ95-SCD1-HiBit cells).

Take `CC(C)CS(=O)(=O)c1ccccc1Oc1ccc(-c2noc(CN3C(=O)N(CCN4CCOCC4)C4(CCN(Cc5ccc(O)cc5)CC4)C3=O)n2)cc1C(F)(F)F` [Compound 20, 8-(4-hydroxybenzyl)-3-((3-(4-(2-(isobutylsulfonyl)phenoxy)-3-(trifluoromethyl)phenyl)-1,2,4-oxadiazol-5-yl)methyl)-1-(2-morpholinoethyl)-1,3,8-triazaspiro[4.5]decane-2,4-dione]: the Emax with SZ95 sebocytes (setting [1]) stood at 155%; in the test with SZ95 sebocytes (setting [2]), 149%; in the test with SCD1 (setting [3]), 93.7%; in the test on SCD1 (setting [4]), 89.1%. The figures for the EC50 in the test on SZ95 sebocytes (SZ95 cells) and in the test on SCD1 (SZ95-SCD1-HiBit cells) were at most 4.6 nM and 0.078 nM, respectively.

Take `CC(C)CS(=O)(=O)c1ccccc1Oc1ccc(-c2noc(CN3C(=O)N(CCN4CCOCC4)C4(CCN(Cc5cc(O)cc(O)c5)CC4)C3=O)n2)cc1C(F)(F)F` [Compound 21, 8-(3,5-dihydroxybenzyl)-3-((3-(4-(2-(isobutylsulfonyl)phenoxy)-3-(trifluoromethyl)phenyl)-1,2,4-oxadiazol-5-yl)methyl)-1-(2-morpholinoethyl)-1,3,8-triazaspiro[4.5]decane-2,4-dione]: the Emax came to 102% in the test with SZ95 sebocytes (setting [1]), 97.5% in the test with SZ95 sebocytes (setting [2]), 83.7% with SCD1 (setting [3]) and 79.6% with SCD1 (setting [4]). In addition, the EC50 in the test with SZ95 sebocytes (SZ95 cells) was at most 4.6 nM; in the test on SCD1 (SZ95-SCD1-HiBit cells), 0.241 nM.

Take `CC(C)CS(=O)(=O)c1ccccc1Oc1ccc(-c2noc(CN3C(=O)N(CCN4CCOCC4)C4(CCN(C5CCN(C)CC5)CC4)C3=O)n2)cc1C(F)(F)F` [Compound 22, 3-((3-(4-(2-(isobutylsulfonyl)phenoxy)-3-(trifluoromethyl)phenyl)-1,2,4-oxadiazol-5-yl)methyl)-8-(1-methylpiperidin-4-yl)-1-(2-morpholinoethyl)-1,3,8-triazaspiro[4.5]decane-2,4-dione]: the Emax is 160% in the test on SZ95 sebocytes (setting [1]), 154% in the test with SZ95 sebocytes (setting [2]), 135% with SCD1 (setting [3]) and 129% with SCD1 (setting [4]). The EC50 in the test on SZ95 sebocytes (SZ95 cells) was at most 4.6 nM; in the test on SCD1 (SZ95-SCD1-HiBit cells), 1.83 nM.

For the compound `CC(C)CS(=O)(=O)c1ccccc1Oc1ccc(-c2noc(CN3C(=O)N(CCN4CCOCC4)C4(CCN(C5CCN(C)C5)CC4)C3=O)n2)cc1C(F)(F)F` (stereo not drawn) [Compound 23, 3-((3-(4-(2-(isobutylsulfonyl)phenoxy)-3-(trifluoromethyl)phenyl)-1,2,4-oxadiazol-5-yl)methyl)-8-(1-methylpyrrolidin-3-yl)-1-(2-morpholinoethyl)-1,3,8-triazaspiro[4.5]decane-2,4-dione], the Emax in the test with SZ95 sebocytes (setting [1]) came to 176%; with SZ95 sebocytes (setting [2]), 169%; in the test with SCD1 (setting [3]) it was 85.1%; in the test with SCD1 (setting [4]), 80.9%. Further, the concentration giving a half-maximal response (EC50) is at most 4.6 nM in the test with SZ95 sebocytes (SZ95 cells) and 3.48 nM in the test on SCD1 (SZ95-SCD1-HiBit cells).

Regarding `CCN1CCC2(CC1)C(=O)N(Cc1nc(-c3ccc(Oc4ccccc4S(=O)(=O)CC(C)C)c(C(F)(F)F)c3)no1)C(=O)N2CCN1CCOCC1` [Compound 24, 8-ethyl-3-((3-(4-(2-(isobutylsulfonyl)phenoxy)-3-(trifluoromethyl)phenyl)-1,2,4-oxadiazol-5-yl)methyl)-1-(2-morpholinoethyl)-1,3,8-triazaspiro[4.5]decane-2,4-dione], the Emax in the test with SZ95 sebocytes (setting [1]) was determined as 164%; with SZ95 sebocytes (setting [2]) it was 158%; in the test with SCD1 (setting [3]) it was 117%; with SCD1 (setting [4]) it was 111%. For the same compound, the 50% effective concentration (EC50) with SZ95 sebocytes (SZ95 cells) was at most 4.6 nM; in the test on SCD1 (SZ95-SCD1-HiBit cells), 0.05 nM.

Regarding `CC(C)CS(=O)(=O)c1ccccc1Oc1ccc(-c2noc(CN3C(=O)N(CCN4CCOCC4)C4(CCN(Cc5cccnn5)CC4)C3=O)n2)cc1C(F)(F)F` [Compound 25, 3-((3-(4-(2-(isobutylsulfonyl)phenoxy)-3-(trifluoromethyl)phenyl)-1,2,4-oxadiazol-5-yl)methyl)-1-(2-morpholinoethyl)-8-(pyridazin-3-ylmethyl)-1,3,8-triazaspiro[4.5]decane-2,4-dione], the Emax in the test on SZ95 sebocytes (setting [1]) came to 190%; in the test with SZ95 sebocytes (setting [2]), 182%; in the test with SCD1 (setting [3]), 98.2%; in the test on SCD1 (setting [4]), 93.4%. For the same compound, the EC50 in the test with SZ95 sebocytes (SZ95 cells) was at most 4.6 nM; with SCD1 (SZ95-SCD1-HiBit cells), 1.62 nM.

With `CC(C)CS(=O)(=O)c1ccccc1Oc1ccc(-c2noc(CN3C(=O)N(CCN4CCOCC4)C4(CCN(CC5CCOCC5)CC4)C3=O)n2)cc1C(F)(F)F` [Compound 26, 3-((3-(4-(2-(isobutylsulfonyl)phenoxy)-3-(trifluoromethyl)phenyl)-1,2,4-oxadiazol-5-yl)methyl)-1-(2-morpholinoethyl)-8-((tetrahydro-2H-pyran-4-yl)methyl)-1,3,8-triazaspiro[4.5]decane-2,4-dione], the Emax with SZ95 sebocytes (setting [1]) came to 113%; with SZ95 sebocytes (setting [2]) it was 108%; with SCD1 (setting [3]), 96.3%; in the test with SCD1 (setting [4]), 91.6%. Further, the EC50 in the test with SZ95 sebocytes (SZ95 cells) is at most 4.6 nM; in the test on SCD1 (SZ95-SCD1-HiBit cells), 0.796 nM.

As to `CC(C)CS(=O)(=O)c1ccccc1Oc1ccc(-c2noc(CN3C(=O)N(CCN4CCOCC4)C4(CCN(CC5CC5)CC4)C3=O)n2)cc1C(F)(F)F` [Compound 27, 8-(cyclopropylmethyl)-3-((3-(4-(2-(isobutylsulfonyl)phenoxy)-3-(trifluoromethyl)phenyl)-1,2,4-oxadiazol-5-yl)methyl)-1-(2-morpholinoethyl)-1,3,8-triazaspiro[4.5]decane-2,4-dione], the Emax in the test on SZ95 sebocytes (setting [1]) was 114%; in the test with SZ95 sebocytes (setting [2]), 109%; in the test with SCD1 (setting [3]), 89.1%; with SCD1 (setting [4]), 84.7%. The EC50 with SZ95 sebocytes (SZ95 cells) is at most 4.6 nM; with SCD1 (SZ95-SCD1-HiBit cells) it was 0.254 nM.

In the case of `CC(C)CS(=O)(=O)c1ccccc1Oc1ccc(-c2noc(CN3C(=O)N(CCN4CCOCC4)C4(CCN(C(=O)CC5CC5)CC4)C3=O)n2)cc1C(F)(F)F` [Compound 28, 8-(2-cyclopropylacetyl)-3-((3-(4-(2-(isobutylsulfonyl)phenoxy)-3-(trifluoromethyl)phenyl)-1,2,4-oxadiazol-5-yl)methyl)-1-(2-morpholinoethyl)-1,3,8-triazaspiro[4.5]decane-2,4-dione], the Emax is 145% with SZ95 sebocytes (setting [1]), 139% with SZ95 sebocytes (setting [2]), 74.8% in the test on SCD1 (setting [3]) and 71.1% in the test with SCD1 (setting [4]). In addition, the EC50 in the test on SZ95 sebocytes (SZ95 cells) is at most 4.6 nM; in the test with SCD1 (SZ95-SCD1-HiBit cells) it was 0.697 nM.

On to `CC(C)CS(=O)(=O)c1ccccc1Oc1ccc(-c2noc(CN3C(=O)N(CCN4CCOCC4)C4(CCN(C(=O)c5cncnc5)CC4)C3=O)n2)cc1C(F)(F)F` [Compound 29, 3-((3-(4-(2-(isobutylsulfonyl)phenoxy)-3-(trifluoromethyl)phenyl)-1,2,4-oxadiazol-5-yl)methyl)-1-(2-morpholinoethyl)-8-(pyrimidine-5-carbonyl)-1,3,8-triazaspiro[4.5]decane-2,4-dione], for which the Emax came out at 135% in the test with SZ95 sebocytes (setting [1]), 129% in the test with SZ95 sebocytes (setting [2]), 87.7% in the test with SCD1 (setting [3]) and 83.4% in the test with SCD1 (setting [4]). For the same compound, the EC50 with SZ95 sebocytes (SZ95 cells) is at most 4.6 nM; in the test with SCD1 (SZ95-SCD1-HiBit cells), 0.796 nM.

Usually EC50 stands for the concentration giving half of the maximal effect.
